Literature values as cited in publication PMC7465391, “1,4-Disubstituted 1,2,3-Triazoles as Amide Bond Surrogates for the Stabilisation of Linear Peptides with Biological Activity” (Molecules, 2020).
Like-named read-outs stand apart in the source and are kept apart here.

Experiments:
cathepsin L = target: cathepsin L
Text: (§1) Table 7 Sequences of CatS1–2 and CatK1–2 and their reported biological properties. | column: Ki for CatL, pH 5.5 [nM] ^b || The Lalmanach group explored the stabilisation of peptidic inhibitors for cathepsin K and S [99]. These two proteins are cysteine proteases normally present in lysosomes and share a high homology. When found in the extracellular matrix, these enzymes are often overexpressed and dysregulated, making them innovative targets for new therapies for a range of medical conditions. Cathepsin K is considered as a target involved in osteoporosis whereas cathepsin S has been identified to play a role in autoimmune diseases and neuropathic pain [100, 101]. One strategy to identify inhibitors for prot ... || Another set of investigated peptidomimetics was based on a bradykinin-derived substrate, previously reported to be degraded by cathepsin K [103].

cathepsin K = target: cathepsin K
Text: as §1, with “CatK,” for “CatL,”

Row | Substance | Ki (cathepsin L; pH 5.5, 37 °C, substrate Z-Phe-Arg-AMC, mean ± SEM of three experiments, read-out: Ki for CatL, pH 5.5) [µM] | Ki (cathepsin K; reversible inhibition, read-out: Ki cathepsin K) [µM] | Ki (cathepsin L; reversible inhibition, read-out: Ki cathepsin L) [µM] | Ki (cathepsin K; pH 5.5, 37 °C, substrate Z-Phe-Arg-AMC, mean ± SEM of three experiments, read-out: Ki for CatK, pH 5.5) [µM]
1 | Abz-Arg-Pro-Pro-GlyΨ[Tz]Phe-Ser-Pro-Phe-Arg-Tyr(3-NO2)-NH2 [CatK1, triazolo-peptidomimetic of a bradykinin-derived cathepsin K substrate] | 22 | 0.8 | – | –
2 | Ac-Gly-Arg-Trp-His-Pro-Met-GlyΨ[Tz]Ala-Pro-Trp-Glu-D-Ala-D-Arg-NH2 [CatS1] | – | – | 30 | 10
